Data taken from patent publication US20220251114A1, “AZEPINES AS HBV CAPSID ASSEMBLY MODULATORS” (Janssen Sciences Ireland Unlimited Company, priority 2019, published 2022).

system: HBV; assay: HBV replication inhibition assay (BDNA assay) in HepG2.2.15 cells; format: cell-based; details: Hepatitis B virus, 144 h, 6 days treatment, encapsidated HBV DNA in supernatant by branched DNA QuantiGene assay
Protocol: HBV replication inhibition by the disclosed compounds were determined in cells infected or transfected with HBV or cells with stably integrated HBV, such as HepG2.2.15 cells (Sells et al. 1987). In this example, HepG2.2.15 cells were maintained in cell culture medium containing 10% fetal bovine serum (FBS), Geneticin, L-glutamine, penicillin and streptomycin. HepG2.2.15 cells were seeded in 96-well plates at a density of 40,000 cells/well and were treated with serially diluted compounds at a final DMSO concentration of 0.5% either alone or in combination by adding drugs in a checker box format. Cells were incubated with compounds for three days, after which medium was removed and fresh medium containing compounds was added to cells and incubated for another three days. At day 6, supernatant was removed and treated with DNase at 37° C. for 60 minutes, followed by enzyme inactivation at 75° C. for 15 minutes. Encapsidated HBV DNA was released from the virions and covalently linked HBV polymerase by incubating in lysis buffer (Affymetrix QS0010) containing 2.5 μg proteinase K at 50° C. for 40 minutes. HBV DNA was denatured by addition of 0.2 M NaOH and detected using a branched DNA (BDNA) QuantiGene assay kit according to manufacturer recommendation (Affymetrix). HBV DNA levels were also quantified using qPCR, based on amplification of encapsidated HBV DNA extraction with QuickExtraction Solution (Epicentre Biotechnologies) and amplification of HBV DNA using HBV specific PCR probes that can hybridize to HBV DNA and a fluorescently labeled probe for quantitation. In addition, cell viability of HepG2.2.15 cells incubated with test compounds alone or in combination was determined by using CellTitre-Glo reagent according to the manufacturer protocol (Promega). The mean background signal from wells containing only culture medium was subtracted from all other samples, and percent inhibition at each compound concentration was calculated by normalizing to signals from HepG2.2.15 cells treated with 0.5% DMSO using equation El.
E1: % inhibition=(DMSOave−Xi)/DMSOave×100%
where DMSOave is the mean signal calculated from the wells that were treated with DMSO control (0% inhibition control) and Xi is the signal measured from the individual wells. EC50 values, effective concentrations that achieved 50% inhibitory effect, were determined by non-linear fitting using Graphpad Prism software (San Diego, Calif.) and equation E2.
E2: Y=Ymin+(Ymax−Ymin)/(1+10(Log EC50-X)×HillSlope)
where Y represents percent inhibition values and X represents the logarithm of compound concentrations.
Selected disclosed compounds were assayed in the HBV replication assay (BDNA assay), as described above, and a representative group of these active compounds is shown in Table 3.

Point of comparison: `N#Cc1cc(NC(=O)N2CCc3nn4c(c3C2)[S+]([O-])CC(O)CC4)ccc1F` (stereo not shown) [Example 6, N-(3-Cyano-4-fluorophenyl)-3-hydroxy-2,3,4,5,8,9-hexahydropyrido[4′,3′:3,4]-pyrazolo[5,1-b][1,3]thiazepine-10(11H)-carboxamide 1-oxide], EC50 141 nM. Against it:
- N#Cc1cc(NC(=O)N2CCc3nn4c(c3C2)S(=O)(=O)CC(O)CC4)ccc1F (stereo not shown) [Example 7, N-(3-Cyano-4-fluorophenyl)-3-hydroxy-2,3,4,5,8,9-hexahydropyrido[4′,3′:3,4]-pyrazolo[5,1-b][1,3]thiazepine-10(11H)-carboxamide 1,1-dioxide] — 40-fold lower, 3.5 nM
- N#Cc1cc(NC(=O)N2CCc3nn4c(c3C2)OCC=C(CO)C4)ccc1F [Example 1, N-(3-Cyano-4-fluorophenyl)-4-(hydroxymethyl)-5,8,9,11-tetrahydropyrido-[4′,3′:3,4]pyrazolo[5,1-b] [1,3] oxazepine-10(2H)-carboxamide] — 7.8-fold lower, 18 nM
- N#Cc1cc(NC(=O)N2CCc3nn4c(c3C2)SCC(O)CC4)ccc1F (stereo not shown) [Example 3, N-(3-Cyano-4-fluorophenyl)-3-hydroxy-2,3,4,5,8,9-hexahydropyrido[4′,3′:3,4]-pyrazolo[5,1-b][1,3]thiazepine-10(11H)-carboxamide] — 28-fold lower, 5 nM
- N#Cc1cc(NC(=O)N2CCc3nn4c(c3C2)SCCC(O)C4)ccc1F (stereo not shown) [Example 2, N-(3-Cyano-4-fluorophenyl)-4-hydroxy-2,3,4,5,8,9-hexahydropyrido[4′,3′:3,4]-byrazolo[5,1-b][1,3]thiazepine-10(11H)-carboxamide] — 9.4-fold lower, 15 nM
- N#Cc1cc(NC(=O)N2CCc3nn4c(c3C2)[S+]([O-])CCC(O)C4)ccc1F (stereo not shown) [Example 4, N-(3-Cyano-4-fluorophenyl)-4-hydroxy-2,3,4,5,8,9-hexahydropyrido[4′,3′:3,4]-pyrazolo[5,1-b][1,3]thiazepine-10(11H)-carboxamide 1-oxide] — 5.9-fold higher, 834 nM
- N#Cc1cc(NC(=O)N2CCc3nn4c(c3C2)S(=O)(=O)CCC(O)C4)ccc1F (stereo not shown) [Example 5, N-(3-Cyano-4-fluorophenyl)-4-hydroxy-2,3,4,5,8,9-hexahydropyrido[4′,3′:3,4]-pyrazolo[5,1-b][1,3]thiazepine-10(11H)-carboxamide 1,1-dioxide] — 3.5-fold lower, 40 nM
